# Several values for one entry are separate records, joined by “and”; a condition that tells them apart may be missing. Equal entries are not always repeated.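 Cells were grown in 96-well plates and exposed to each compound for 48 hours at five concentrations; endpoints were interpolated linearly between bracketing concentrations, or set to the highest concentration if not reached. At the GI50, growth is halved. TGI: total growth inhibition.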
# Tested on: MDA-N
# Assay: NCI tumour cell line growth inhibition, 48 h
row,SMILES,TGI [µM]
1,O=C(CCC(=O)c1ccc(Cl)cc1)NO,> 100
2,COc1c(C)c(C/C=C(\C)CCCCO[Si](c2ccccc2)(c2ccccc2)C(C)(C)C)c(OC)c(OC)c1OC,> 46.4
3,CN1CCN([C@H]2C[C@H]3[C@@H]4CC=C5C[C@@H](O)CC[C@]5(C)[C@H]4CC[C@]3(C)C2=O)CC1,> 100
4,COc1ccc(C2c3cc4c(cc3OC(NNS(=O)(=O)c3ccc(C)cc3)C2C)OCO4)cc1 (stereo not drawn),> 100
5,C[C@@]12C[C@@H](c3ccccc3O1)N1CCCCSC1=N2,> 100
6,CCOC(=O)Nn1c(C)nnc1-c1ccccc1,> 100
7,c1ccc(N=C2SC3=Nc4cccc5cccc(c45)N3C2=Nc2ccccc2)cc1,> 100
8,Cc1cc(O)c2c(=O)c3ccccc3[nH]c2c1,> 100
9,N=c1n(C(=O)N2CCCC2)c2cc(Cl)ccc2n1C1=NCCN1,> 100
10,Nc1cccc2cc(Cl)cnc12,> 100
11,CC1=C(C)[C@@]2(C)O[C@@]2(C)O[C@@]2(C)O[C@@]12C,> 100
12,C=C1c2nc3ccccc3n2C=C(c2ccccc2)N1c1ccc([N+](=O)[O-])cc1,43.5

# Tested on: SF-295 CNS
# Assay: NCI tumour cell line growth inhibition, 48 h
SMILES,TGI,GI50
CC[C@@]1(O)C(=O)OCc2c1cc1n(c2=O)Cc2c-1nc1ccccc1c2/C=N\NC(=O)CN,6.13 µM,
O=C(NNC(=O)c1ccccc1SSc1ccccc1C(=O)NNC(=O)c1ccccc1S)c1ccccc1S,> 100 µM,
CCOC(=O)C(NC(C)=O)(Nc1ccc(F)cc1)C(F)(F)F (stereo not drawn),> 100 µM,
CCOc1cc2c(cc1O)/C(=N\OC)C[C@@H]1[C@@H]2CC[C@]2(C)[C@@H](O)CC[C@@H]12,2.32 µM,0.242 µM
O=C1/C(=C/c2ccc(O)cc2)CC/C1=C\c1ccc(O)cc1,> 100 µM,
COC(=O)[C@H]1CO[C@@H](C(C)(C)C)N1C(=O)N1C=CC(=O)C[C@@H]1C,> 100 µM,
Clc1ccc(/C=C/c2nc3ccccc3s2)cc1Cl,> 100 µM,
C(/c1ccco1)=c1/nc(-c2ccccc2)n2c1nc1ccccc12,> 100 µM,
COC(=O)C1CCC(=O)N1C(c1ccccc1)c1ccc(OC)c(OC)c1 (stereo not drawn),> 100 µM,
Oc1cccc2c(Cl)ccnc12,> 100 µM,
Cc1cccc(/C=N/NC(=S)Nc2ccccc2)n1,> 100 µM,
NC(=O)C(c1ccccc1)N1OC2C(=O)N(c3ccccc3)C(=O)C2C1c1c2ccccc2c(Cl)c2ccccc12 (stereo not drawn),> 100 µM,
COc1ccc(/C=C2\CCC(C)C3=C2NC(=S)NC3c2ccc(OC)c(OC)c2)cc1OC (stereo not drawn),> 31.6 µM,
C=C(Br)C(C)(Cl)CCC(Br)C(C)(C)Cl (stereo not drawn),> 100 µM,
Cc1c2cnccc2c(C)c2c1c1ccccc1n2CCCN,0.865 µM and 1.24 µM,0.285 µM and 0.24 µM
O=C(CCC(=O)c1ccc(Cl)cc1)NO,> 100 µM,
COc1c(C)c(C/C=C(\C)CCCCO[Si](c2ccccc2)(c2ccccc2)C(C)(C)C)c(OC)c(OC)c1OC,> 46.4 µM,
CN1CCN([C@H]2C[C@H]3[C@@H]4CC=C5C[C@@H](O)CC[C@]5(C)[C@H]4CC[C@]3(C)C2=O)CC1,> 100 µM,
COc1ccc(C2c3cc4c(cc3OC(NNS(=O)(=O)c3ccc(C)cc3)C2C)OCO4)cc1 (stereo not drawn),> 100 µM,
C[C@@]12C[C@@H](c3ccccc3O1)N1CCCCSC1=N2,> 100 µM,
CCOC(=O)Nn1c(C)nnc1-c1ccccc1,> 100 µM,
c1ccc(N=C2SC3=Nc4cccc5cccc(c45)N3C2=Nc2ccccc2)cc1,> 100 µM,
Cc1cc(O)c2c(=O)c3ccccc3[nH]c2c1,51.2 µM,
N=c1n(C(=O)N2CCCC2)c2cc(Cl)ccc2n1C1=NCCN1,> 100 µM,
Nc1cccc2cc(Cl)cnc12,> 100 µM,
CC1=C(C)[C@@]2(C)O[C@@]2(C)O[C@@]2(C)O[C@@]12C,> 100 µM,
C=C1c2nc3ccccc3n2C=C(c2ccccc2)N1c1ccc([N+](=O)[O-])cc1,18.5 µM,

# Tested on: SR leukemia
# Assay: NCI tumour cell line growth inhibition, 48 h
row,SMILES,TGI [µM]
1,CC[C@@]1(O)C(=O)OCc2c1cc1n(c2=O)Cc2c-1nc1ccccc1c2/C=N\NC(=O)CN,0.464
2,O=C(NNC(=O)c1ccccc1SSc1ccccc1C(=O)NNC(=O)c1ccccc1S)c1ccccc1S,> 75.3
3,CCOC(=O)C(NC(C)=O)(Nc1ccc(F)cc1)C(F)(F)F (stereo not drawn),> 100
4,CCOc1cc2c(cc1O)/C(=N\OC)C[C@@H]1[C@@H]2CC[C@]2(C)[C@@H](O)CC[C@@H]12,0.0585
5,O=C1/C(=C/c2ccc(O)cc2)CC/C1=C\c1ccc(O)cc1,> 100
6,COC(=O)[C@H]1CO[C@@H](C(C)(C)C)N1C(=O)N1C=CC(=O)C[C@@H]1C,> 100
7,Clc1ccc(/C=C/c2nc3ccccc3s2)cc1Cl,> 100
8,C(/c1ccco1)=c1/nc(-c2ccccc2)n2c1nc1ccccc12,43
9,COC(=O)C1CCC(=O)N1C(c1ccccc1)c1ccc(OC)c(OC)c1 (stereo not drawn),> 100
10,Oc1cccc2c(Cl)ccnc12,9.57
11,Cc1cccc(/C=N/NC(=S)Nc2ccccc2)n1,> 100
12,NC(=O)C(c1ccccc1)N1OC2C(=O)N(c3ccccc3)C(=O)C2C1c1c2ccccc2c(Cl)c2ccccc12 (stereo not drawn),> 100
13,COc1ccc(/C=C2\CCC(C)C3=C2NC(=S)NC3c2ccc(OC)c(OC)c2)cc1OC (stereo not drawn),39.3
14,C=C(Br)C(C)(Cl)CCC(Br)C(C)(C)Cl (stereo not drawn),> 100
15,Cc1c2cnccc2c(C)c2c1c1ccccc1n2CCCN,0.349
16,O=C(CCC(=O)c1ccc(Cl)cc1)NO,> 100
17,COc1c(C)c(C/C=C(\C)CCCCO[Si](c2ccccc2)(c2ccccc2)C(C)(C)C)c(OC)c(OC)c1OC,> 46.4
18,CN1CCN([C@H]2C[C@H]3[C@@H]4CC=C5C[C@@H](O)CC[C@]5(C)[C@H]4CC[C@]3(C)C2=O)CC1,70.1
19,COc1ccc(C2c3cc4c(cc3OC(NNS(=O)(=O)c3ccc(C)cc3)C2C)OCO4)cc1 (stereo not drawn),69.7
20,C[C@@]12C[C@@H](c3ccccc3O1)N1CCCCSC1=N2,> 100
21,CCOC(=O)Nn1c(C)nnc1-c1ccccc1,> 100
22,c1ccc(N=C2SC3=Nc4cccc5cccc(c45)N3C2=Nc2ccccc2)cc1,> 100
23,Cc1cc(O)c2c(=O)c3ccccc3[nH]c2c1,52.6
24,N=c1n(C(=O)N2CCCC2)c2cc(Cl)ccc2n1C1=NCCN1,> 100
25,Nc1cccc2cc(Cl)cnc12,> 100
26,CC1=C(C)[C@@]2(C)O[C@@]2(C)O[C@@]2(C)O[C@@]12C,> 100
27,C=C1c2nc3ccccc3n2C=C(c2ccccc2)N1c1ccc([N+](=O)[O-])cc1,> 70

# Source: PubChem BioAssay (NCI)
